Laboratory results: US6384041B1, “Bicyclic sPLA2 inhibitors” (Eli Lilly and Company, priority 1998, dated 2002)

Target: T1, recombinant human secreted phospholipase A2 (Homo sapiens, UniProt P14555)
T1 sequence (P14555 21-144): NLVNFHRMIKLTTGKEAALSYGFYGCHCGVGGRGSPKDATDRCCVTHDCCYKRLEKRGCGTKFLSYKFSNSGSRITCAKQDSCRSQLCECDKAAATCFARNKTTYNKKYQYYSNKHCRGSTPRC
Assay: Human Recombinant hnp-sPLA2 Chromogenic Assay
Type: biochemical
Conditions: not given
Excerpt: The following chromogenic assay procedure was used to identify and evaluate inhibitors of recombinant human secreted phospholipase A2.The assay described herein has been adapted for high volume screening using 96 well microtiter plates. A general description of this assay method is found in the article, “Analysis of Human Synovial Fluid Phospholipase A2 on Short Chain Phosphatidylcholine-Mixed Micelles: Development of a Spectrophotometric Assay Suitable for a Microtiterplate Reader”, by Laure J. Reynolds, Lori L. Hughes, and Edward A Dennis, Analytical Biochemistry, 204, pp. 190-197, 1992 (the disclosure of which is incorporated herein by reference): Reagents:
Bovine Serum Albumin (fatty acid free) (1 g/L)
(Sigma A-7030, product of Sigma Chemical Co. St. Louis Mo., USA) […]
pH 7.5 (adjust with NaOH)
Adjust pH to 4.5 with acetic acid
DTNB—5,5′-dithiobis-2-nitrobenzoic acid
Racemic Diheptanoyl Thio-PC racemic 1,2-bis(heptanoylthio)-1,2-dideoxy-sn-glycero-3-phosphorylcholine TRITON X-100™ prepare at 6.249 mg/ml in reaction buffer to equal […].
A measured volume of racemic dipheptanoyl thio PC supplied in chloroform at a concentration of 100 mg/ml is taken to dryness and redissolved in 10 millimolar TRITON X-100™ nonionic detergent aqueous solution.
Reaction Buffer is added to the solution, then DTNB to give the Reaction Mixture.
The reaction mixture thus obtained contains lmM diheptanoly thio-PC substrate, 0.29 mm Triton X-100™ detergent, and 0.12 mm DTMB in a buffered aqueous solution at pH 7.5.
1. Add 0.2 ml reaction mixture to all wells;
2. Add 10 ul test compound (or solvent blank) to appropriate wells, mix 20 seconds;
3. Add 50 nanograms of sPLA2 (10 microliters) to appropriate wells;
4. Incubate plate at 40° C. for 30 minutes;
5. Read absorbance of wells at 405 nanometers with an automatic plate reader.
All compounds were tested in triplicate. Typically, compounds were tested at a final concentration of 5 ug/ml. […] Lack of color development at 405 nanometers evidenced inhibition. Compounds initially found to be active were reassayed to confirm their activity and, if sufficiently active, IC50 values were determined. […] In all cases, % inhibition measured at 405 nanometers generated by enzyme reactions containing inhibitors relative to the uninhibited control reactions was determined. Each sample was titrated in triplicate and result values were averaged for plotting and calculation of IC50 values. IC50 were determined by plotting log concentration versus inhibition values in the range from 10-90% inhibition.

Going from `CCc1c(C(=O)C(N)=O)c2c(OCC(=O)O)nc(C)nc2n1Cc1ccccc1` [—H|—CH3|phenyl, [[2-methyl-5-(aminooxoacetyl)-6-ethyl-7-(phenylmethyl)-7H-pyrrolo[2,3-d]pyrimidin-4-yl]oxy]acetic Acid] to `CCc1c(C(=O)C(N)=O)c2c(OCC(=O)O)nc(OC)nc2n1Cc1ccccc1` [—H|—O—CH3|phenyl, [[2-methoxy-5-(aminooxoacetyl)-6-ethyl-7-(phenylmethyl)-7H-pyrrolo[2,3-d]pyrimidin-4-yl]oxy]acetic acid], the IC50 falls from 88 nM to 46 nM (1.9-fold). The second is the more potent here.

`CCc1c(C(=O)C(N)=O)c2c(OCC(=O)O)ncnc2n1Cc1cccc(Cl)c1` [—H|—H|m-Cl-phenyl, [[5-(aminooxoacetyl)-6-ethyl-7-[(3-chlorophenyl)methyl]-7H-pyrrolo[2,3-d]pyrimidin-4-yl]oxy]acetic acid] and `CCc1c(C(=O)C(N)=O)c2c(OCC(=O)O)ncnc2n1Cc1cccc(F)c1` [—H|—H|m-F-phenyl, [[5-(aminooxoacetyl)-6-ethyl-7-[(3-fluorophenyl)methyl]-7H-pyrrolo[2,3-d]pyrimidin-4-yl]oxy]acetic acid] are within 1.5-fold of each other in IC50: 91 nM for the first, 98 nM for the second.

First: CCc1c(C(=O)C(N)=O)c2c(OCC(=O)O)ncnc2n1Cc1ccccc1 [—H|—H|phenyl, [[5-(aminooxoacetyl)-6-ethyl-7-(phenylmethyl)-7H-pyrrolo[2,3-d]pyrimidin-4-yl]oxy]acetic acid]
Second: CCc1c(C(=O)C(N)=O)c2c(OCC(=O)O)nc(SC)nc2n1Cc1ccccc1 [—H|—SCH3|phenyl, [[2-(methylthio)-5-(aminooxoacetyl)-6-ethyl-7-(phenylmethyl)-7H-pyrrolo[2,3-d]pyrimidin-4-yl]oxy]acetic acid]
The IC50 of the first is 2.5-fold higher: 48 nM for the first, 19 nM for the second.

`CCc1c(C(=O)C(N)=O)c2c(OCC(=O)O)nc(SC)nc2n1Cc1cccc(C(F)(F)F)c1` [—H|—S-methyl|m-CF3-phenyl, [[2-(methylthio)-5-(aminooxoacetyl)-6-ethyl-7-[[3-(trifluoromethyl)phenyl]methyl]-7H-pyrrolo[2,3-d]pyrimidin-4-yl]oxy]acetic acid] and `CCc1c(C(=O)C(N)=O)c2c(OCC(=O)O)nc(SC)nc2n1Cc1cccc(F)c1` [—H|—S-methyl|m-F-phenyl, [[2-(methylthio)-5-(aminooxoacetyl)-6-ethyl-7-[(3-fluorophenyl)methyl]-7H-pyrrolo[2,3-d]pyrimidin-4-yl]oxy]acetic acid] are within 1.5-fold of each other in IC50: 13 nM for the first, 16 nM for the second.

First: CCc1c(C(=O)C(N)=O)c2c(OCC(=O)O)nc(SC)nc2n1Cc1cccc(Cl)c1 [—H|—S-methyl|m-Cl-phenyl, [[2-(methylthio)-5-(aminooxoacetyl)-6-ethyl-7-[(3-chlorophenyl)methyl]-7H-pyrrolo[2,3-d]pyrimidin-4-yl]oxy]acetic acid]
Second: CCc1c(C(=O)C(N)=O)c2c(OCC(=O)O)nc(SC)nc2n1Cc1ccccc1-c1ccccc1 [—H|—S-methyl|o-phenyl-phenyl, [[2-(methylthio)-5-(aminooxoacetyl)-6-ethyl-7-([1,1′-biphenyl]-2-ylmethyl)-7H-pyrrolo[2,3-d]pyrimidin-4-yl]oxy]acetic acid]
The IC50 of the first is 2.1-fold higher: 19 nM for the first, 9 nM for the second. The second is the more potent here.

In the case of `CCc1c(C(=O)C(N)=O)c2c(OCC(=O)O)nc(Sc3ccccc3)nc2n1Cc1ccccc1` [—H|—S-phenyl|phenyl, [[2-(phenylthio)-5-(aminooxoacetyl)-6-ethyl-7-(phenylmethyl)-7H-pyrrolo[2,3-d]pyrimidin-4-yl]oxy]acetic acid], the IC50 is reported as 11 nM.

Same assay, conditions: chromogenic assay, diheptanoyl thio-PC substrate, pH 7.5, 40° C. for 30 minutes, absorbance at 405 nm; average of n = 3-4; read-out: IC50 (micro-molar) n = 3 − 4 (ave)

`CCc1c(C(=O)C(N)=O)c2c(OCC(=O)OC)nc(C)nc2n1Cc1ccccc1` [—CH3|—CH3|phenyl, [[2-methyl-5-(aminooxoacetyl)-6-ethyl-7-(phenylmethyl)-7H-pyrrolo[2,3-d]pyrimidin-4-yl]oxy]acetic acid methyl ester] and `CCc1c(C(=O)C(N)=O)c2c(OCC(=O)OC)ncnc2n1Cc1ccccc1` [—CH3|—H|phenyl, [[5-(aminooxoacetyl)-6-ethyl-7-(phenylmethyl)-7H-pyrrolo[2,3-d]pyrimidin-4-yl]oxy]acetic acid methyl ester] are within 1.5-fold of each other in IC50: 4650 nM for the first, 5460 nM for the second.

`CCc1c(C(=O)C(N)=O)c2c(OCC(=O)O)ncnc2n1Cc1cccc(C(F)(F)F)c1` [—H|—H|m-CF3-phenyl, [[5-(aminooxoacetyl)-6-ethyl-7-[[3-(trifluoromethyl)phenyl]methyl]-7H-pyrrolo[2,3-d]pyrimidin-4-yl]oxy]acetic acid] and `CCc1c(C(=O)C(N)=O)c2c(OCC(=O)O)ncnc2n1Cc1ccccc1-c1ccccc1` [—H|—H|o-phenyl-phenyl, [[5-(aminooxoacetyl)-6-ethyl-7-([1,1′-biphenyl]-2-ylmethyl)-7H-pyrrolo[2,3-d]pyrimidin-4-yl]oxy]acetic acid] are within 1.5-fold of each other in IC50: 124 nM for the first, 114 nM for the second.
